# Measured values as given in US8183388B2, “Androgen receptor modulator and uses thereof” (Eli Lilly and Company, priority 2009, dated 2012).
# Legend:
# [1] = biological target: T1, human MR (mineralocorticoid receptor) (Homo sapiens, UniProt P08235); assay: Steroid hormone nuclear receptor binding assay, MR; conditions: HEK293 lysate overexpressing human MR, [3H]-aldosterone
# T1 construct: expressed in transfected cells; host or cells: HEK293 (lysate, 293-MR)
# T1 sequence (P08235 1-984): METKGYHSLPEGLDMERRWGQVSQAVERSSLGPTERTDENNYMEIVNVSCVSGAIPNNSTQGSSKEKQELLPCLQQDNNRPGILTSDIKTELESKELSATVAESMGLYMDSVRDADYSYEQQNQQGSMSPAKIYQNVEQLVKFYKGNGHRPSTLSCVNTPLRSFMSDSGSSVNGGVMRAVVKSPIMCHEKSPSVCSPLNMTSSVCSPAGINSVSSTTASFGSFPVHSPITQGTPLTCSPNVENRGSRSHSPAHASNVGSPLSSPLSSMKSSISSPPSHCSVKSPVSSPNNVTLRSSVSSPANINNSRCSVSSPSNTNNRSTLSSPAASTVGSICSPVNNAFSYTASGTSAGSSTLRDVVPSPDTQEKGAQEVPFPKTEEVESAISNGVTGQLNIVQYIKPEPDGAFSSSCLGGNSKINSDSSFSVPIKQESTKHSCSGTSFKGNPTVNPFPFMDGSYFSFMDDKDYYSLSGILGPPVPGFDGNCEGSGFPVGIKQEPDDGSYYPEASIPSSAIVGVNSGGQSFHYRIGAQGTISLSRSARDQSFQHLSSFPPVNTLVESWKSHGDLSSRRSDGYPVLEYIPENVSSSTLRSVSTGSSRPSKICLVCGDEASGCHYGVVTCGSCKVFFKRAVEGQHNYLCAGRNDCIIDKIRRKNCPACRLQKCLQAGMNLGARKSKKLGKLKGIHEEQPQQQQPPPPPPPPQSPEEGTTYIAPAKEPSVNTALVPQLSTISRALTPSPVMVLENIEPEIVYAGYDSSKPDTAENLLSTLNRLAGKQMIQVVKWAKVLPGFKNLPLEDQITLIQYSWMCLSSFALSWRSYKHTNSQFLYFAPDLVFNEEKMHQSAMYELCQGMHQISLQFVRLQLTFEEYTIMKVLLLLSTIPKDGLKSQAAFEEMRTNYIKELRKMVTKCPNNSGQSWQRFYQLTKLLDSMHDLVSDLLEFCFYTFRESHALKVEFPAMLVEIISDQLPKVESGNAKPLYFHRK
# Procedure: Cell lysates from human embryonic kidney HEK293 cells overexpressing human MR (mineralocorticoid receptor), GR (glucocorticoid receptor), AR (androgen receptor), or PR (progesterone receptor) are used for receptor-ligand competition binding assays to determine Ki values. Typical procedures are provided below
# Briefly, steroid receptor competition binding assays are run in a buffer containing 20 mM HEPES buffer (pH=7.6), 0.2 mM EDTA, 75 mM NaCl, 1.5 mM MgCl2, 20% glycerol, 20 mM sodium molybdate, 0.2 mM DTT (dithiothreitol), 20 μg/mL aprotinin and 20 μg/mL leupeptin (assay buffer). Typically, steroid receptor binding assays include radio-labeled ligands, such as 0.25 nM [^3H]-aldosterone for MR binding, 0.3 nM [^3H]-dexamethasone for GR binding, 0.36 nM [^3H]-methyltrienolone for AR binding, and 0.29 nM [^3H]-methyltrienolone for PR binding, and either 20 μg 293-MR lysate, 20 μg 293-GR lysate, 22 μg 293-AR lysate, or 40 μg 293-PR lysate per well. Assays are typically run in 96-well format. Competing test compounds are added at various concentrations ranging from about 0.01 nM to 10 μM. Non-specific binding is determined in the presence of 500 nM aldosterone for MR binding, 500 nM dexamethasone for GR binding, or 500 nM methyltrienolone for AR and PR binding. […] After an incubation of 2 hours, plates are read in a Wallac Microbeta counter. […]
# [2] = test system: castrated (GDX) male Sprague Dawley rats; assay: In vivo model of efficacy and selectivity (castrated rats, tissue wet weights); conditions: for mean normalized LA wet weight value / mean normalized bulbocavernous wet weight value / mean normalized prostate wet weight value: two week treatment, n=6, wet weight divided by body weight
# Procedure: Eight week old male Sprague Dawley rats are castrated (gonadectomized or “GDX”) according to approved procedures and allowed to waste for eight weeks. Age-matched sham-operated […] are also prepared. Animals are housed in a temperature-controlled room (24° C.) with a reversed 12 hour light/dark cycle and water and food are available ad libitum.
# Animals are randomized based on body weight prior to ascribing a test slot. Test compound in vehicle, or vehicle alone, is administered daily by subcutaneous injection to the castrated 16 week old rats (body weight about 380-400 g) using a conventional vehicle such as 5% DMSO/95% soybean oil. Sham operated rats treated with vehicle alone are used as a treatment positive controls, whereas the castrated rats treated only with vehicle are used as treatment negative control. A separate cohort of castrated animals are treated with testosterone as a comparator.
# Test animals are dosed daily over a two or eight week timeframe with, for example, 0.1, 0.3, or 1.0 mg/kg per day of the compound of the present invention, or weekly with 10 mg/kg per week of testosterone (sesame oil vehicle) After the treatment period the animals are sacrificed and the wet weight of the levator ani (LA) muscle, the prostate and the bulbocavernous muscle from each animal is determined (after weighing, the bulbocavernous muscle may be flash frozen in liquid nitrogen for later use in measuring neuronal nitric oxide synthase mRNA, as described below). The wet weights are then normalized by dividing each individual wet weight by the body weight of the corresponding animal at the end of the study. The normalized values from the treatment animals are then compared to the normalized values from the castrated, vehicle-only control group or the sham group. As an indicator of tissue selective activity, the wet weight of the prostate from test animals may be similarly compared to the wet weight of the prostate from the control groups or the testosterone-treated comparator group.
smiles,measurement,setting,value
"CC(C)OC(=O)N[C@H]1Cc2c(n(C[C@H]3OCC[C@@H]3O)c3ccc(C#N)cc23)C1 [compound of Formula (I), [(S)-7-Cyano-4-((2R,3S)-3-hydroxytetrahydrofuran-2-ylmethyl)-1,2,3,4-tetrahydrocyclopenta[b]indol-2-yl]-carbamic acid isopropyl ester]",Ki,[1],> 4 µM
same,mean normalized LA wet weight value,[2]; 0.1 mg/kg per day s.c.,about 0.44
same,mean normalized bulbocavernous wet weight value,[2]; 0.1 mg/kg per day s.c.,about 0.77
same,mean normalized prostate wet weight value,[2]; 0.1 mg/kg per day s.c.,about 0.04
same,mean normalized LA wet weight value,[2]; 0.3 mg/kg per day s.c.,about 0.57
same,mean normalized bulbocavernous wet weight value,[2]; 0.3 mg/kg per day s.c.,about 1.29
same,mean normalized prostate wet weight value,[2]; 0.3 mg/kg per day s.c.,about 0.14
same,mean normalized LA wet weight value,[2]; 1.0 mg/kg per day s.c.,about 0.68
same,mean normalized bulbocavernous wet weight value,[2]; 1.0 mg/kg per day s.c.,about 1.41
same,mean normalized prostate wet weight value,[2]; 1.0 mg/kg per day s.c.,about 0.52
same,levator ani and bulbocavernous muscle weights in comparison to the castrated control group,"[2]; 0.1-1.0 mg/kg per day s.c., two weeks",dose dependent increase
same,effect on prostate weight when compared to Sham control and testosterone treated animals,"[2]; two weeks, tissue selectivity",decreased effect
